Experimental data reported in US11840686B2, “Modulation of prekallikrein (PKK) expression” (Ionis Pharmaceuticals, Inc., priority 2013, dated 2023).
Strand notation (5' to 3'): a small letter for the sugar, then the base; units joined by * are phosphorothioate-linked, units joined directly phosphodiester-linked; [ ] holds rarer units or linkages, { } end groups; capitals alone tell only the bases. e = 2'-O-(2-methoxyethyl) (MOE); [5mC] = 5-methylcytosine; d = 2'-deoxy (DNA)

System: human PKK mRNA
Experiment: Antisense inhibition of human PKK mRNA in HepaRG cells, 5,000 nM (Example 2)
Type: cell-based
How it was run: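 Percent inhibition of PKK mRNA is relative to untreated control, with qRT-PCR (probe set RTS3454) values adjusted to total RNA by RIBOGREEN. Oligonucleotides, fully phosphorothioate 2′-MOE gapmers, were delivered at 5,000 nM by electroporation into 20,000 HepaRG cells/well for about 24 h.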

[1] = Table 7, HepaRG cells, electroporation with 5,000 nM antisense oligonucleotide, approx. 24 hours, PKK mRNA by RT-PCR (RTS3454), relative to untreated control cells
[2] = HepaRG cells, electroporation with 5,000 nM antisense oligonucleotide, approximately 24 hours, PKK mRNA by RT-PCR (RTS3454), relative to untreated control cells, Table 5 experiment
[3] = Table 13, human PKK mRNA in HepaRG cells, 5-10-5 gapmers
[4] = Table 9 experiment, HepaRG cells, 20,000 cells per well, electroporation with 5,000 nM antisense oligonucleotide, approx. 24 hours, PKK mRNA by RT-PCR (RTS3454), relative to untreated control cells
[5] = Table 10 experiment, HepaRG cells, 20,000 cells per well, electroporation with 5,000 nM antisense oligonucleotide, approx. 24 hours, PKK mRNA by RT-PCR (RTS3454), relative to untreated control cells
[6] = HepaRG cells, 5,000 nM antisense oligonucleotide, 5-10-5 gapmers, Table 16
[7] = human PKK mRNA, HepaRG cells, 5,000 nM antisense oligonucleotide, Table 18

548712 (DNA eA*e[5mC]*eT*dG*dT*dA*d[5mC]*dT*dA*dG*dT*dT*dT*e[5mC]*e[5mC]*eT; antisense) [compound 548712]
% inhibition (HepaRG cells, 5,000 nM antisense oligonucleotide, human PKK mRNA, Table 18): 9%

547384 (eA*eA*eA*e[5mC]*eA*dT*dT*dT*d[5mC]*dT*dT*dT*dG*dT*dG*eA*e[5mC]*eT*e[5mC]*eG; antisense) [compound 547384]
% inhibition [1]: 50%

547295 (antisense eA*e[5mC]*e[5mC]*eT*e[5mC]*dA*dT*d[5mC]*dT*dG*dG*d[5mC]*dA*dG*dT*eA*eT*eT*eG*eG) [compound 547295]
% inhibition [2]: 88%

546773 (eT*e[5mC]*eT*e[5mC]*eT*dA*dG*d[5mC]*dA*dT*d[5mC]*d[5mC]*dT*dA*dG*eT*e[5mC]*e[5mC]*eT*e[5mC]; antisense) [compound 546773]
% inhibition [3]: 67%

546418 (eA*eT*eG*eT*eG*dG*d[5mC]*dA*d[5mC]*dT*dG*d[5mC]*dA*dG*dG*e[5mC]*eA*eA*eT*eA; antisense) [compound 546418]
% inhibition (HepaRG cells, electroporation, 5,000 nM antisense oligonucleotide, approx. 24 hours, primer probe set RTS3454, relative to untreated control cells, Table 12): 72%

546243 (eA*eG*eA*eA*eT*dG*dG*d[5mC]*dA*dG*dG*dG*dT*dT*d[5mC]*eA*eG*eG*eT*eA; antisense) [compound 546243]
% inhibition [1]: 16%

547461 (antisense eG*eT*eA*eA*eT*dT*d[5mC]*dA*dA*dA*dG*dG*dA*dG*d[5mC]*e[5mC]*eT*eG*eG*eA) [compound 547461]
% inhibition [4]: 49%
% inhibition [5]: 55%

547286 (antisense eA*eG*eA*e[5mC]*eA*dT*d[5mC]*d[5mC]*dA*d[5mC]*dA*dG*dG*dA*dA*eA*e[5mC]*eT*eG*eT) [compound 547286]
% inhibition [2]: 68%

546307 (antisense eT*eA*eT*eA*eG*dT*dT*dT*dT*dG*dG*dT*dG*dA*dA*eT*eA*eA*eT*eA) [compound 546307]
% inhibition [4]: 12%
% inhibition [5]: 0%

546843 (eT*eA*eT*e[5mC]*eA*d[5mC]*dT*dG*dT*d[5mC]*d[5mC]*dT*dA*dT*dA*eA*e[5mC]*eT*e[5mC]*eT; antisense) [compound 546843]
% inhibition [3]: 52%

547308 (antisense eT*e[5mC]*eA*eA*eG*dA*dA*dG*d[5mC]*dA*dA*d[5mC]*d[5mC]*dA*dA*eA*e[5mC]*e[5mC]*eT*eT) [compound 547308]
% inhibition [2]: 66%

547487 (antisense eT*eG*eT*eG*eT*dT*dT*dG*d[5mC]*dA*dA*dA*d[5mC]*dT*dA*eA*eG*eG*eG*eA) [compound 547487]
% inhibition [4]: 72%
% inhibition [5]: 61%

546964 (eG*e[5mC]*eG*eA*eT*dT*d[5mC]*d[5mC]*dT*dT*dG*d[5mC]*d[5mC]*dT*d[5mC]*eT*eG*e[5mC]*eT*eG; antisense) [compound 546964]
% inhibition [6]: 53%

547429 (eA*eA*eT*e[5mC]*eT*d[5mC]*dA*dA*dA*dG*dA*dG*dT*dA*dA*e[5mC]*e[5mC]*eA*eG*eA; antisense) [compound 547429]
% inhibition (Table 8, HepaRG cells, electroporation with 5,000 nM antisense oligonucleotide, approx. 24 hours, PKK mRNA by RT-PCR (RTS3454), relative to untreated control cells): 81%

546878 (e[5mC]*e[5mC]*eT*eA*eT*dA*dA*d[5mC]*dA*dG*dT*dA*dT*d[5mC]*dA*e[5mC]*eT*eG*eT*e[5mC]; antisense) [compound 546878]
% inhibition (human PKK mRNA in HepaRG cells, 5-10-5 gapmers, Table 14): 81%

548777 (antisense eG*eT*eA*eA*d[5mC]*dA*dG*dT*dA*dT*d[5mC]*dA*d[5mC]*eT*eG*eT*eA) [compound 548777]
% inhibition [7]: 41%

547708 (antisense eG*e[5mC]*e[5mC]*eA*eG*dG*dA*dG*dA*d[5mC]*dA*dG*d[5mC]*d[5mC]*d[5mC]*eT*eA*e[5mC]*eT*e[5mC]) [compound 547708]
% inhibition [6]: 67%

548735 (DNA eA*eT*e[5mC]*eA*d[5mC]*dT*dG*dT*dA*d[5mC]*dT*dA*dG*dT*eT*eT*e[5mC]; antisense) [compound 548735]
% inhibition [7]: 48%

547377 (e[5mC]*eA*eT*eT*eT*dG*dT*dA*dT*dA*dG*dA*dA*dT*dG*eT*eA*eA*eA*eG; antisense) [compound 547377]
% inhibition [1]: 6%

546155 (e[5mC]*e[5mC]*eT*e[5mC]*eA*dT*d[5mC]*dT*dG*dG*d[5mC]*dA*dG*dT*dA*eT*eT*eG*eG*eG; antisense) [compound 546155]
% inhibition [2]: 47%
